Source: patent publication US10485772B2, “Compositions for modulating cancer stem cells and uses therefor” (University of Canberra, priority 2014, dated 2019)

Columns and labels:
[1] = tested on: CD44^high/CD24^low CSC-like subpopulation of PMA-stimulated MCF-7 cells (MCF-IM model); assay: FACS analysis of CD44high/CD24low CSC-like subpopulation in MCF-IM model; assay type: cell-based, human; conditions: MCF-IM model; for CD44 high CD24 low-CSC-like subpopulation by FACS: bisindolylmaleimide-I 100 nm and 1 μM prior to PMA for 60 hrs
Protocol: Cells from each well/flask were harvested by means of trypsin treatment followed by two washes with PBS. Washed cells then re-suspended in an antibody cocktail consisting anti-CD44-APC, anti-CD24-PE antibodies (details in Table 5) and Hoechst 33258 dye (final dilution of 1:1000) (Invitrogen, Carlsbad, Calif.) in 1% FCS-PBS solution. Cells re-suspended in antibody cocktail were incubated for 20 minutes at 4° C. Cells were next washed twice with PBS and re-suspended in 1% FCS-PBS solution (volume based on cell number) and kept on ice until analyzed by FACS. Forward scatter (FSC) and side scatter parameters were selected with FITC fluorochrome excited by 488 nm argonion laser, PE fluorochrome excited by 488 nm and Hoechst fluorochrome excited by 350 nm helium-cadmium UV laser.
Flow Cytometry data was produced using either BD FACS LSR Flow Cytometer (Becton Dickinson Biosciences) or BD FACS Aria™ II Flow Cytometer (Becton Dickinson Biosciences) and analyzed using the data acquisition software CellQuest Pro (Becton Dickinson Biosciences) and FlowJo (Tree Star Inc., Ashland, Oreg.) software at the MCRF facility, JCSMR, ANU, Canberra, Australia. Single colour controls were used to set compensation parameters. Isotype controls were used for all corresponding primary antibodies in each experiment.
The FACS gating strategy used in this thesis is adopted and modified from the pioneer breast cancer stem cell publications (Al-Hajj et al., 2003) which sorted cells based on the CD44^high and CD24^low expression. […] To confirm that anti-CD44-APC and anti-CD24-PE antibodies were specific, isotype control antibodies were used. The isotype (negative controls) used for anti-CD24-PE was PE Mouse-Anti-human IgG2aK and for anti-CD44-APC was APC-Mouse-Anti-human IgG2bK. First, all the cells were stained with Hoechst 33258 to monitor cell viability. In addition cells were stained with varying concentrations of either APC or PE isotypes controls.
(§1) The adherent human mammary adenocarcinoma MCF-7 and MDA-MB-231 cells were cultured in low glucose DMEM (Gibco) and both supplemented with 10% FCS, 2 mM L-glutamine and 0.1% PSN antibiotics. Cells were stimulated with 0.65 ng/ml of phorbol 12-myristate 13-acetate (PMA) (Sigma-Aldrich) or 20 ng/ml of TGF-β (R&D systems) for the times indicated. For Bisindolylmaleimide-I (Calbiochem) or PKC-θ peptide inhibitor (Calbiochem) studies, cells were pre-treated with 1 μM or 30 μM of inhibitor respectively for 1 h prior to stimulation in MCF-7 cells. In case of MDA-MB-231, cells were treated with 4 μM or 30 μM Bisindolylmaleimide-I or PKC-θ peptide inhibitor respectively.
To separate CSC from non-CSC (NCSC), florescence activated cell sorting (FACS) was performed on single-cell suspensions that were stained with anti-CD44-APC (559942, BD Biosciences) and anti-CD24-PE antibodies (555428, BD Biosciences) along with Hoechst 33258 to monitor cell viability. As used throughout this work, CSC are defined by minority CD44^high/CD24^low, whereas NCSC are defined by rest of the cell populations.
The adherent human mammary adenocarcinoma cell lines MCF-7 were cultured in low glucose DMEM (Gibco) and supplemented with 10% FCS, 2 mM L-glutamine, and 0.1% PSN antibiotics. Cells were stimulated with 0.65 ng/ml of phorbol 12-myristate 13-acetate (PMA) (Sigma-Aldrich) for 60 hours. FACS was performed on single-cell suspensions stained with anti-CD44-APC (559942, BD Biosciences) and anti-CD24-PE antibodies (555428, BD Biosciences), along with Hoechst 33258 (561908, BD Biosciences) to monitor cell viability as previously detailed (Zafar et al., Chromatinized PKC-theta directly regulates inducible genes in epithelial to mesenchymal transition and breast cancer stem cells. Molecular and Cellular Biology, 2014, 34:16 2961-2980). […]

MCF-7 cells = assay: EMT assay by phase contrast microscopy in MCF-IM model; assay type: cell-based, human; conditions: MCF-IM model; for EMT (morphology): bisindolylmaleimide 1 μM, 1 hr pre-treatment before PMA for 60 hrs
Protocol: EMT assays were performed in 24-well plates (Costar, Corning Inc., Corning, N.Y., USA). For this assay, usually MCF-7 cells were seeded at 4×10^4/well/500 μL media one day before the experiment unless otherwise specified. Cells were stimulated with various EMT stimuli prepared in warm media the following day and monitored for EMT changes under the microscope specified below. The percentage of EMT was generally calculated based on phenotype counting 100 cells per field under the microscope. All the potential EMT stimuli used herein are described in Table 6 and they were prepared and stored as per supplier specification.
Phase contrast microscopy was utilized for EMT and wound healing assays under 10× or 20× magnification of Olympus Fluorescence 1X71 microscope. Images were captured and analyzed as described above except that wound healing assay pictures were also analyzed by Image J software (Free software in Public domain developed by NIH).
as §1, with “Cells were stimulated with 0.65 ng/ml of phorbol 12-myristate 13-acetate (PMA) (Sigma-Aldrich) or 20 ng/ml of TGF-β (R&D systems) for the times indicated.” left out
phase contrast microscopy was performed where cells were viewed at ×4 magnification (wound healing assay) or ×10 magnification (EMT) using an Olympus fluorescence IX71 microscope (Olympus) and images were captured using DPController software (2002 Olympus Optical Co. LTD) and analyzed using Photoshop CS3 (Adobe Systems Inc.). Scans were taken with a 10 μm scale bar.

[2] = listed as Broad spectrum PKC pathway inhibitor

Row | Compound | CD44 high CD24 low-CSC-like subpopulation by FACS [1] | CD44 high CD24 low-CSC-like subpopulation by FACS [1, 2] | EMT (morphology) (MCF-7 cells) | EMT (morphology) (MCF-7 cells; [2]) | CD44 high CD24 low-CSC-like subpopulation (CSC formation) by FACS ([1]; Go6976 1 μM prior to PMA for 60 hrs) | PMA-induced EMT-like morphological changes (MCF-7 cells; pre-incubation with Go6976)
1 | CN(C)CCCn1cc(C2=C(c3c[nH]c4ccccc34)C(=O)NC2=O)c2ccccc21 [bisindolylmaleimide-I] | only very high concentration of bisindolylmaleimide-I but not Go 6976 inhibits CD44 high CD24 low-CSC-like subpopulation | inhibition of EMT and CSC formation | inhibits EMT | inhibition of EMT and CSC formation | – | –
2 | Cn1c2ccccc2c2c3c(c4c5ccccc5n(CCC#N)c4c21)CNC3=O [Go6976] | – | – | – | – | did not prevent PMA-induced EMT-like morphological changes or CSC formation | did not prevent PMA-induced EMT-like morphological changes or CSC formation
